Measured values from patent publication US20110294794A1, “TREATMENT OF PROTEINOPATHIES USING A FARNESYL TRANSFERASE INHIBITOR” (Link Medicine Corporation, priority 2008, published 2011).
“Also recorded” adds a separate entry of the source.

Legend:
Aβ = Aβ pathology in APP/PS1 transgenic mice (6E10, Thioflavin-S, ELISA); assay type: in vivo, mouse; conditions: 0.9 mg/kg once every 24 hr, two months
Source text: Immunohistochemistry and quantification of stained cells: For evaluation of α-synuclein immunoreactivity (IR), 5 sagittal cryo-cut sections (10 μm slice thickness) from five different layers were used for counting of IR cells in the cortex and hippocampus. Brain sections were stained with a monoclonal human α-synuclein specific antibody (Alexis®; Cat# 804-258-L001; dilution 1:5), followed by a secondary Ab Cy 2-Goat Anti-Rat (Jackson ImmunoResearch®; dilution 1:200). IR positive cells were quantified using specialized image analysis software (Image Pro Plus, version 4.5.1.29). […] Images were evaluated with ImageProPlus (version 6.2) image analysis software. For APP/PS1 transgenic animals sagittal hemisections (40 μm) were collected and processed for Aβ immunohistochemistry using an 6E10 antibody, Thioflavin-S staining Primary antibodies were detected by the ABC method.
ELISA quantification of α-Synuclein in the α-Synuclein transgenic animals: Brain homogenate was centrifuged and the supernatant saved as fraction F1. […] Raw absorbance (405 nm) was then normalized to the total protein concentration of each sample. […] To quantify the amount of human Aβ-40 and Aβ-42, ELISA kits were used (The Genetics Company, Zurich, Switzerland). […]

p62 mRNA = p62 mRNA in SH-SY5Y cells; assay type: cell-based, human; conditions: 100 nM (FIG. 8e)
Description: Quantitative real-time PCR: Gene expression profiles were done by qPCR on series of known autophagy genes. RNA was extracted with Tri-reagent (Sigma), and cDNAs generated using iScript (Biorad). qPCR analysis was carried out in a 96 well plate using an iCycler (BioRad, Hercules, Calif.), and iQ SYBR Green Supermix (Biorad) according to the manufacturer's specifications.

LC3-II = LC3-II protein level (autophagic flux) in SH-SY5Y cells with or without bafilomycin A1; assay type: cell-based, human
Source text: Data are represented as mean+/−SEM with statistical significance by paired student's t-test (n=4, p<0.05).
The observed increase in LC3-positive autophagosomes could result, in principle, from either an increased flux through the autophagy pathway or decreased autophagosome degradation (Pankiv, S., et al. J Biol Chem 282, 24131-24145 (2007); Kamada, Y., et al. J Cell Biol 150, 1507-1513 (2000)). […] In order to ascertain an increase in autophagic flux, cells were co-treated with LNK-754-TS and an inhibitor of autophagosome-lysosome fusion, bafilomycin A1 (10 nM). Bafilomycin treatment alone caused a 100% increase in the amount of LC3-II, consistent with the fact that it inhibits autophagosome degradation (FIG. 8c).
The mechanism of autophagy stimulation by LNK-754-TS appears distinct from that of the drug rapamycin. Rapamycin is a well-characterized autophagy stimulator that acts through inhibition of mTOR, a kinase involved in nutrient signaling and regulation of cell growth and survival. […] To further contrast the mechanism of autophagy stimulation by LNK-754-TS to that of rapamycin, a collection of mRNA transcripts of autophagy proteins were measured (FIG. 8d). Selected mRNAs from untreated SH-SY5Y cells were compared to mRNAs from cells treated with LNK-754-TS (100 nM), tipifarnib (100 nM), or rapamycin (1 μM).

C#Cc1cccc(-c2cc(=O)n(C)c3ccc([C@](O)(c4ccc(Cl)cc4)c4cncn4C)cc23)c1 [LNK-754-TS, (R)-6-[(4-chlorophenyl)-hydroxyl-(1-methyl-1-H-imidazol-5-yl)-methyl]-4-(3-ethynylphenyl)-1-methyl-2-(1H)-quinonlinone (2S,3S)-dihydroxybutanedioate]
levels of Aβ40/Aβ42 extracted from whole brain fractions (Elisa) (Aβ): no statistically significant changes | number of Aβ (6E10) immunoreactive plaques in the subiculum vs. vehicle (Aβ): lesser, but still significant, effect; also recorded: significant decrease | p62 mRNA (p62 mRNA): upregulation; also recorded: increased | LC3-II protein level (LC3-II; 100 nM in the presence of Bafilomycin A1 (10 nM)): increased | accumulation of LC3-I or LC3-II (LC3-II; treatment alone, without bafilomycin): did not cause accumulation
